Measured values taken from US7179800B2 (priority 2002, dated 2007).
Several values for one entry are separate records, joined by “and”; a condition that tells them apart may be missing. Identical values can stand only once.

Experiments:
Male ICR mice [1] = assay: Tail-flick antinociception (TF, % MPE) in mice; type: in vivo, mouse; conditions: for T.F. % effect at dose: Table 6, @ 30 (mg/kg)
Description: (§1) Male ICR mice (25–32 g), obtained from Harlan (Dublin, Va.), were housed in groups of five. All animals were kept in a temperature-controlled (20–22° C.) environment with a 12-hour light-dark cycle (lights on at 7 a.m.). Separate mice were used for testing each drug dose in the in vivo behavioral procedures. Brain tissue for binding studies was obtained from male Sprague-Dawley rats (150–200 g) purchased from Harlan Laboratories (Dublin, Va.).
(§2) Measurement of spontaneous activity in mice occurred in standard activity chambers interfaced with a Digiscan Animal Activity Monitor (Omnitech Electronics, Inc., Columbus, Ohio). A standard tail-flick apparatus and a digital thermometer (Fisher Scientific, Pittsburgh, Pa.) were used to measure antinociception and rectal temperature, respectively
(§3) Resorcinols were synthesized in our labs (Organix, Inc., Woburn, Mass.) according to the procedure specified below and were suspended in a vehicle of absolute ethanol, Emulphor-620 (Rhone-Poulenc, Inc., Princeton, N.J.), and saline in a ratio of 1:1:18. Drugs were administered to the mice intravenously (i.v.) in the tail vein at a volume of 0.1 ml/10 g.
(§4) Prior to testing in the behavioral procedures, mice were acclimated to the experimental setting (ambient temperature 22–24° C.) overnight. Pre-injection control values were determined for rectal temperature and tail-flick latency (in sec). […] Tail-flick latency was measured at 20 min post-injection. Maximum latency of 10 sec was used. Antinociception was calculated as percent of maximum possible effect {% MPE=[(test−control latency)/(10-control)]×100}. Control latencies typically ranged from 1.5 to 4.0 sec. At 30 min post-injection, rectal temperature was measured This value was expressed as the difference between control temperature (before injection) and temperatures following drug administration (° C.). Different mice (n=5–6 per dose) were tested for each dose of each compound. Each mouse was tested in each of the 3 procedures.
(§5) Based on data obtained from numerous previous studies with cannabinoids, maximal cannabinoid effects in each procedure were estimated as follows: 90% inhibition of spontaneous activity, 100% MPE in the tail flick procedure, and −6° C. change in rectal temperature. ED50's were defined as the dose at which half maximal effect occurred. For drugs that produced one or more cannabinoid effect, ED50's were calculated separately using least-squares linear regression on the linear part of the dose-effect curve for each measure in the mouse tetrad, plotted against log10 transformation of the dose. For the purposes of potency comparison, potencies were expressed as μmol/kg.

Male ICR mice [2] = assay: Change in rectal temperature (RT) in mice; type: in vivo, mouse; conditions: for R.T. effect at dose: Table 6, @ 30 (mg/kg)
Description: as §1, §2, §3, §4, §5

CB2 receptor = target: T1, CB2 receptor (Homo sapiens, UniProt P34972); assay: CB2 binding procedure: displacement of [3H]CP-55,940 from membranes of transfected CHO cells; conditions: for CB1/CB2 (ratio of Ki): CB1 Ki divided by CB2 Ki; for Ki: means ± SEM, [3H]CP-55,940, transfected CHO cell membranes, read-out: Ki (nM) CB2
T1 construct: expressed in transfected cells; host or cells: CHO cells, G418-selected transfected line
Description: Membranes for CB2 binding were obtained from CHO cells. The transfected cell line was maintained in Dublecco's Modified Eagle Medium (Gibco BRL, Grand Island, N.Y.) with 10% fetal clone II (HyClone Laboratories, Inc., Logan, Utah) plus 0.3 to 0.5 mg/ml G418 (to maintain selective pressure) under 5% CO2 at 37% C. Cells were harvested with 1 mM EDTA in phosphate-buffered saline and were centrifuged at 1000×g for 5 min at 4% C. The supernatant was saved and the P1 pellet was resuspended in centrifugation buffer. Homogenization and centrifugation were repeated twice and the combined supernatant fractions were centrifuged at 40,000×g for 30 min at 4% C. The P2 pellet was resuspended in centrifugation buffer 2 (Tris HCl, 50 mM; EDTA, 1 mM; and MgCl2, 3 mM, pH 7.4) to a protein concentration of approximately 2 mg/ml. Protein concentrations were determined by the method of Bradford (1976) using Bio-Rad Protein Assay (Bio-Rad, Richmond, Calif.) and BSA standards (fatty acid free, Sigma Chemical Co., St. Louis, Mo.). The membrane preparation was divided into amounts convenient for binding assays and frozen rapidly in dry ice and stored at −80% C.
Binding was initiated by the addition of 50 μg of quickly thawed P2 membranes to test tubes containing [^3H]CP-55,940 (final reaction concentration 0.5 nM), an appropriate concentration of unlabeled CP-55,940 or test drug, and sufficient quantity of assay buffer (50 mM Tris-HCl, 1 mM EDTA, 3 mM MgCl2, 5 mg/ml bovine serum albumin, pH 7.4) to bring the total incubation volume to 0.5 ml. Concentration of [^3H]CP-55,940 in saturation studies ranged from 50 to 10,000 pM. Nonspecific binding was determined by the addition of 1 μM unlabeled CP-55,940. CP-55,940 and all cannabinoid analogs were prepared by suspension in assay buffer from a 1 mg/ml ethanolic stock without evaporation of the ethanol (final concentration of no more than 0.4%). In competition studies, analog concentrations ranged from 0.1 nM to 10 μM. After incubation at 30% C for 1 hr, binding was terminated by the addition of 2 ml of ice-cold wash buffer (50 mM Tris-HCl and 1 mg/ml BSA) and vacuum filtration through pre-treated filters in a 12-well sampling manifold (Millipore, Bedford, Mass.). Reaction vessels were washed once with 2 ml of ice-cold wash buffer. Filters were placed into 7-ml plastic scintillation vials (RPI Corp., Mount Prospect, Ill.) with 4 ml of Budget-Solve (RPI Corp.). After shaking for 30 min, the radioactivity present was determined by liquid scintillation spectrometry. Three reaction vessels were used for each drug concentration in each assay. The results represent the combined data of three independent experiments. All assays were performed in siliconized test tubes, which were prepared by air drying (12 hr) inverted borosilicate tubes after two rinses with a 0.1% solution of AquaSil (Pierce, Rockford, Ill.). The GF/C glass-fiber filters (2.4 cm, Baxter, McGaw Park, Ill.) were pre-treated in a 0.1% solution of pH 7.4 polyethylenimine (Sigma Chemical Co.) for at least 6 hr.
(§6) In addition, multiple linear regression was used to calculate the overall degree of relationship between CB1 binding affinity and potency in the mouse measures for all active cannabinoids. […] Ki values for CB1 and CB2 binding were obtained from Scatchard displacement analysis as determined via EBDA program of the KELL software package (Biosoft, Milltown, N.J.).

CB1 receptor = CB1 receptor (Rattus norvegicus, UniProt P20272); assay: CB1 binding procedure: displacement of [3H]CP 55,940 from rat whole-brain P2 membranes; design: whole brain was homogenized and centrifuged; from tissue; host or cells: rat whole brain, P2 membrane fraction; conditions: for Ki: means ± SEM, [3H]CP 55,940, rat brain membranes, read-out: Ki (nM) CB1
Description: as §1
The methods used for tissue preparation and binding have been described previously (Compton et al., 1993) and are similar to those described by Devane et al. (1988). All assays, as described briefly below, were performed in triplicate, and the results represent the combined data from three to six individual experiments.
Following decapitation and rapid removal of the brain, whole brain was homogenized and centrifuged. The resulting pellet was termed P1. The supernatant was saved and combined with the two subsequent supernatants obtained from washing of the P1 pellet. The combined supernatant fractions were centrifuged, resulting in the P2 pellet. After further incubation and centrifuging, this pellet was resuspended in assay buffer to a protein concentration of approximately 2 mg/ml. The membrane preparation was quickly frozen in a bath solution of dry ice and 2-methylbutane (Sigma Chemical Co., St. Louis, Mo.), then stored at −80° C. for no more than 2 weeks. Prior to performing a binding assay an aliquot of frozen membrane was rapidly thawed and protein values determined by the method of Bradford (1976).
Binding was initiated by the addition of 150 μg of P2 membrane to test tubes containing 1 nM of [^3H] CP 55,940 (79 Ci/mmol) and a sufficient quantity of buffer to bring the total incubation volume to 1 ml. Nonspecific binding was determined by the addition of 1 μM unlabeled CP 55,940. Following incubation at 30° C. for 1 hr, binding was terminated by addition of ice cold buffer and vacuum filtration through pretreated filters in a 12-well sampling manifold (Millipore, Bedford, Mass.). After washing, filters were placed into plastic scintillation vials (Packard, Downer Grove, Ill.) and shaken. The quantity of radioactivity present was determined by liquid scintillation spectrometry.
as §6

Male ICR mice [3] = assay: Suppression of spontaneous activity (SA) in mice; type: in vivo, mouse
Description: as §1, §2, §3, §4, §5

[4] = relative to the comparator analog

T1 sequence (P34972 whole entry): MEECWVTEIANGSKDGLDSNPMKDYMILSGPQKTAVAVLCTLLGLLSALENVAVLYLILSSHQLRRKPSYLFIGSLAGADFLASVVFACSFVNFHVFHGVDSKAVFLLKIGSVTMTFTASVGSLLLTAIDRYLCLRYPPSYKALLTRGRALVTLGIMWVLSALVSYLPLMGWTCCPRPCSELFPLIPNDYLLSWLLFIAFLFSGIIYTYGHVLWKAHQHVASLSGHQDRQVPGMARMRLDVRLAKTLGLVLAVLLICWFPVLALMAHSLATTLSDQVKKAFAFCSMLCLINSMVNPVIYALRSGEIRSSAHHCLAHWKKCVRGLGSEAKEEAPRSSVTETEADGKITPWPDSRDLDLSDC
Sequence of CB1 receptor (P20272 whole entry): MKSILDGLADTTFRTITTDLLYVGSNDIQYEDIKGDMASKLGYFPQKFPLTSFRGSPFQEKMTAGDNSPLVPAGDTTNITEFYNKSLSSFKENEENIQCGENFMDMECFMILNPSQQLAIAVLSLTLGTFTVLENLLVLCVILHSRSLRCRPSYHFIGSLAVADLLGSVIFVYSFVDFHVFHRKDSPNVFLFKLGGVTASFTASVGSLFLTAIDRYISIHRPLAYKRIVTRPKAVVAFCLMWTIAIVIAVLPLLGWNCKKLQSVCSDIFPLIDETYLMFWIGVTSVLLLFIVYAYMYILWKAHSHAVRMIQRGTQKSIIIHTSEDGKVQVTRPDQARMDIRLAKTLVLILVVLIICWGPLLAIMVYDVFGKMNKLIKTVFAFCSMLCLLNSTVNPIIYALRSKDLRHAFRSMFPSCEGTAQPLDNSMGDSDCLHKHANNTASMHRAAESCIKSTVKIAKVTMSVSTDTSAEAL

| Compound | T.F. % effect at dose (Male ICR mice [1]) | CB1/CB2 (ratio of Ki) (CB2 receptor) | Ki (CB2 receptor) | Ki (CB1 receptor) | also measured |
| --- | --- | --- | --- | --- | --- |
| CCCCCCC(C)(C)c1cc(OC)c(C2(O)CCCC(C)C2)c(OC)c1 (single isomer, unassigned; isomer 1) [O-1966A, 1-(4-(1,1-Dimethylheptyl-2,6-dimethoxy-phenyl)-3-methyl-cyclohexanol isomer 1] | 5.1 @ 30% | 220 | 22.5 nM and 23 nM | 5060 ± 984 nM | R.T. effect at dose (Male ICR mice [2]): 0.5 @ 30 °C; CB2 selectivity (CB2 receptor): 225 fold |
| CCCCCCC(C)(C)c1cc(OC)c(C2=CCOCC2)c(OC)c1 [O-1965, 4-(4-(1,1-Dimethylheptyl)-2,6-dimethoxy-phenyl)-3,6-dihydro-2H-pyran] |  |  | > 10000 nM | > 10000 nM |  |
| CCCCCCC(C)(C)c1ccc(-c2cc(CO)ccc2C(C)C)c(O)c1 [O-1601, 3-1′,1′-Dimethylheptyl-6-(2-isopropyl-5-hydroxy-methylphenyl)-phenol] |  | 2 | 3 ± 0.4 nM | 5 ± 0.6 nM | ED50 (Male ICR mice [3]; Mus musculus, iv, mice, i.v., 95% confidence limits in parentheses, read-out: ED50 SA (suppression of spontaneous activity)): 1.1 µmol/kg; ED50 (Male ICR mice [1]; Mus musculus, iv, mice, i.v., 95% confidence limits in parentheses, read-out: ED50 TF (antinociceptive effect in tail flick assay)): 1.1 µmol/kg; ED50 (Male ICR mice [2]; Mus musculus, iv, mice, i.v., 95% confidence limits in parentheses, read-out: ED50 RT (rectal temperature)): 1.6 µmol/kg |
| CCCCCCC(C)(C)c1cc(OC)c(C2(O)CCC(O)CC2)c(OC)c1 (single isomer, unassigned) [O-2116A] |  | 21 | 190 ± 17 nM | 3930 ± 483 nM |  |
| CCCCCCC(C)(C)c1cc(OC)c(C2(O)CCC(O)CC2)c(OC)c1 (single isomer, unassigned) [O-2117B] |  |  | 1560 ± 70 nM | > 10000 nM |  |
| C=C(C)[C@@H]1CCC(C)=C[C@H]1c1c(C)cc(O)cc1O (single isomer, unassigned) [O-1602] | 0 @ 30% |  |  |  | S.A % effect at dose, stim. (Male ICR mice [3]; Table 6, stimulation, @ 30 (mg/kg)): 66% stim.; R.T. effect at dose (Male ICR mice [2]): 0.3 @ 30 °C |
| CCCCCCC(C)(C)c1cc(OC)c(C2CCOCC2)c(OC)c1 [O-1964, 4-(4-(1,1-Dimethylheptyl)-2,6-dimethoxy-phenyl)-tetrahydro-pyran] | 30% @ 30 |  | 911 ± 116 nM | > 10000 nM | fold decrease in CB2 affinity (CB2 receptor; [4]): ~2 fold |
| CCCCCCc1ccc(O)c(C2CCCCC2)c1O [O-2010, 2-Cyclohexyl-4-hexyl resorcinol] | 9.0% @ 30 |  |  | 9510 ± 332 nM | SA percent effect at the highest dose (Male ICR mice [3]; mice, i.v., 30 mg/kg, % inhibition of activity of vehicle group): −18%(30); TF percent effect (% MPE) at the highest dose (Male ICR mice [1]; mice, i.v., 30 mg/kg): 9%(30); RT effect at the highest dose (change in rectal temperature) (Male ICR mice [2]; mice, i.v., 30 mg/kg): −0.4(30) °C; fold decrease in CB1 affinity (CB1 receptor; [4]): 865 fold |
